Measurements from patent US6413931B1, “Peptide inhibitor of fibrinogen blood clotting” (The Texas A&M University System, priority 1999, dated 2002).
pKd: −log10 of the molar value.

Assays:
[1] = target: T1, Human Fibrinogen/Bovine Thrombin (Homo sapiens, UniProt P02671+P02675+P02679); assay: Clotting assay (fibrinogen plus thrombin, time to gel-like clot); type: biochemical; settings: for Human Fibrinogen/Bovine Thrombin Clotting Time: 1 mg/ml fibrinogen, 1 unit/ml thrombin
T1 construct: purchased Chromogenix (Sweden)
T1 sequence (P02671 20-629 limits assumed): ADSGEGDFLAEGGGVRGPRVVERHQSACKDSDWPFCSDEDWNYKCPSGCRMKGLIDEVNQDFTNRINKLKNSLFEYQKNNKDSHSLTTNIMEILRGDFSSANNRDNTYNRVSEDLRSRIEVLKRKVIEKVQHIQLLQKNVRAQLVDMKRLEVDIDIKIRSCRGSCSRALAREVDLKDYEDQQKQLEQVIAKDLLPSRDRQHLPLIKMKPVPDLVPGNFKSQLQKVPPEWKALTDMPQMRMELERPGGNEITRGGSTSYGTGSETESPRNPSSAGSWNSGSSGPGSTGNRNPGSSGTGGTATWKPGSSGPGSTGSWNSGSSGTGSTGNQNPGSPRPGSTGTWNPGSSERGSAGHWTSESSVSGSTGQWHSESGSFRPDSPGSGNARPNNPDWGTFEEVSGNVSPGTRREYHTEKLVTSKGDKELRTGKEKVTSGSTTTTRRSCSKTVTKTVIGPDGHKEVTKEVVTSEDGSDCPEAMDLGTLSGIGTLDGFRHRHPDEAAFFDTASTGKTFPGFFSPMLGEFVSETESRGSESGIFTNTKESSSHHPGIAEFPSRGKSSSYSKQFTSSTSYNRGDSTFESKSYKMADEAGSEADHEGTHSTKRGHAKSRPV
T1 sequence (P02675 31-491): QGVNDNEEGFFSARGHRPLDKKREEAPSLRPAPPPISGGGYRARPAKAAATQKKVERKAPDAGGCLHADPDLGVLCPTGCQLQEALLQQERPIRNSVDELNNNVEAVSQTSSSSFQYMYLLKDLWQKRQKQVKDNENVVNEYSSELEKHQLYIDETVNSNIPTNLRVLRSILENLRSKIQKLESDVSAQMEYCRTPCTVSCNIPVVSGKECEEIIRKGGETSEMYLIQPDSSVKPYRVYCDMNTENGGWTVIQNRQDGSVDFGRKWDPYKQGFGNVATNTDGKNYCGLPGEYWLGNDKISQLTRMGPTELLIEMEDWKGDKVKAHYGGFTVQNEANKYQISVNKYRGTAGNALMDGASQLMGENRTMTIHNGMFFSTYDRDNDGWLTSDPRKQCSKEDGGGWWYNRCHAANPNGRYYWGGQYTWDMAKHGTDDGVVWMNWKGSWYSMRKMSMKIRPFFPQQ
T1 sequence (P02679 27-433 limits assumed): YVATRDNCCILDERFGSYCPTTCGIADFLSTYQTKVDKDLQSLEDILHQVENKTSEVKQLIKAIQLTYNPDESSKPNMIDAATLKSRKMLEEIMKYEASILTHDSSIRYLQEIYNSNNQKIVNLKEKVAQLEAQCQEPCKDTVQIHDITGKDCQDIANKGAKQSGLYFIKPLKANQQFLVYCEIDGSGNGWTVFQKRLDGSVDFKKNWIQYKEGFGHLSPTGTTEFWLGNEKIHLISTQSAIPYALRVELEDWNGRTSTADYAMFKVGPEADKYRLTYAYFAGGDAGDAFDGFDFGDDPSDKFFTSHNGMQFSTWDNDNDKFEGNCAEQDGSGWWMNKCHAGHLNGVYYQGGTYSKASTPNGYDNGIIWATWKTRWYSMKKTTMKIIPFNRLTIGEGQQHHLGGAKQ
Method: These tests were conducted by incubating 1 mg of human fibrinogen with desired peptides in 20 mM Tris-HCl, 150 mM NaCl, pH 7.5 in the presence or absence of Zn^2+ for at least 30 min followed by adding 1 unit of bovine thrombin. The total volume of each reaction was 1 ml and the reaction was observed by counting the time for allowing the solution to form a gel like clot in the test tube.
A four amino acid long peptide, G-P-R-P, binds to the γ chain of fibrinogen D fragment and prolongs the clotting time in a closed system containing fibrinogen and thrombin (Laudano, 1978; Laudano, 1980).

fibrinogen D fragment = target: T2, fibrinogen D fragment (Homo sapiens, UniProt P02671+P02675+P02679, DEL434-453); settings: Laudano, 1978; read-out: reported binding affinity KD to fibrinogen D fragment; cited from earlier work
T2 construct: G-P-R-P peptide to fibrinogen D fragment
T2 sequence (P02671 130-216 limits assumed): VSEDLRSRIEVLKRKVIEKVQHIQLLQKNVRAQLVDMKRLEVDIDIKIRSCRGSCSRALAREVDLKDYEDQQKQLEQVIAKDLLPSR
T2 sequence (P02675 164-491 limits assumed): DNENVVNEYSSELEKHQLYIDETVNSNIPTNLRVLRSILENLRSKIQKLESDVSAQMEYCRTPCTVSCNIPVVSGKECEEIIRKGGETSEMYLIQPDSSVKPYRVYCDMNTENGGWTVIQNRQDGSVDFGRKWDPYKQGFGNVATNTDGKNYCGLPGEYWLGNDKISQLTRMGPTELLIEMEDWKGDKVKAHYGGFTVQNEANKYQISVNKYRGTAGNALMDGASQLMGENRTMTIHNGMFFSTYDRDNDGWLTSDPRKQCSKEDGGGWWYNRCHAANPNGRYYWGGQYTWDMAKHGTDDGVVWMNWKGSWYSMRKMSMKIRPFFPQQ
T2 sequence (P02679 112-433 limits assumed): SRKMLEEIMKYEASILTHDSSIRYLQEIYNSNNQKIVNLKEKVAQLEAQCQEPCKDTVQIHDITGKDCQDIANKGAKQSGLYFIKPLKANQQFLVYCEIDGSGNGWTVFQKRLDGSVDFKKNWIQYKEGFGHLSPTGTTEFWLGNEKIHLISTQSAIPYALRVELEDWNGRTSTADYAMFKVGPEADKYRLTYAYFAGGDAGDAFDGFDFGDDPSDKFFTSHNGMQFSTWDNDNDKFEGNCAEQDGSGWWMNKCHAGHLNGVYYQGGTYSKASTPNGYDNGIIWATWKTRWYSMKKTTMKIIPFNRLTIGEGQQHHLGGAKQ

fibrinogen D fragments = target: T3, fibrinogen D fragments (Homo sapiens, UniProt P02671+P02675+P02679, DEL434-453); assay: Inhibition binding assay: competition with MBP-MD4 for binding to fibrinogen D fragments
T3 construct: Fibrinogen D and E fragment were purchased from Calbiochem; purchased Calbiochem (La Jolla, Calif.)
T3 sequence (P02671 130-216 limits assumed): T2 sequence (P02671 130-216 limits assumed)
T3 sequence (P02675 164-491 limits assumed): T2 sequence (P02675 164-491 limits assumed)
T3 sequence (P02679 112-433 limits assumed): T2 sequence (P02679 112-433 limits assumed)
Method: FIG. 8. Competitive binding of MD4 peptide in the interaction of MBP-MD4 to fibrinogen D fragments.
The protocol was based on the enzyme-linked immunosorbant binding assay as described above. However, the inhibitors were mixed with biotin labeled protein and allowed to bind to coated molecules in microtiter wells and incubated for 1 h at room temperature.
To measure the binding affinity of MD4 peptide to fibrinogen D fragments, fluorescence polarization experiments were carried out by incubating fluorescein labeled MD4 peptide with increasing concentration of fibrinogen D fragments and observing the change of polarization. The binding affinity of isolated MD4 peptide to fibrinogen D fragments in the presence of 15 uM ZnCl2 was saturable and the apparent dissociation constant, KD, was (8.4±1.6)×10^−8 M (FIG. 7). Competitive binding to D fragment was compared for a four amino acid peptide, G-P-R-P which is known to bind to fibrinogen γ chain (Pratt, 1997) and to prevent fibrinogen from forming fibrin (Laudano, 1978; Laudano, 1980), reduced and alkylated MD4, unlabeled MD4 peptide, and MBP-MD4. […] MD4 peptide binds to fibrinogen α and β chains in Western ligand binding assays whereas G-P-R-P peptide binds to the γ chain of fibrinogen, therefore, both peptides bound to different sites in D fragment.

Human Fibrinogen/Bovine Thrombin Clotting Time ([1]; 1 mM EDTA) [min] | delay of clot formation ([1]; 100 uM peptide, fibrinogen and thrombin, 15 uM ZnCl2) [min] | Human Fibrinogen/Bovine Thrombin Clotting Time ([1]; peptide 0.1 mM, 20 mM Tris, 150 mM NaCl, 15 μM ZnCl2, pH 7.4) [min] | Compound | pKd (fibrinogen D fragment) | competition with MBP-MD4 for binding to fibrinogen D fragments (fibrinogen D fragments)
12 | – | – | O=C(O)CN(CCN(CC(=O)O)CC(=O)O)CC(=O)O [EDTA] | – | –
– | 10 | 10 | G-P-R-P | 4.77 | Neither G-P-R-P peptide, nor reduced and alkylated MD4 peptide could inhibit
